Results reported in PMC9398180 (Molecular Cancer Therapeutics, 2021).

Experiments:
mouse LMP7 = mouse LMP7 (Mus musculus, UniProt O09061+P28063); assay: Cellular LMP7 activity in mouse P3X63Ag8.653 cells; assay type: cell-based
[1] = target: constitutive proteasome subunit β1 (Homo sapiens, UniProt P28072+Q99436); assay: Cell-free proteasome subunit peptide cleavage assay, β1; assay type: biochemical
[2] = target: constitutive proteasome subunit β2 (Homo sapiens, UniProt P49720+Q99436); assay: Cell-free proteasome subunit peptide cleavage assay, β2; assay type: biochemical
[3] = target: immunoproteasome subunit LMP2 (Homo sapiens, UniProt P28065+P40306); assay: Cell-free proteasome subunit peptide cleavage assay, LMP2; assay type: biochemical
[4] = target: immunoproteasome subunit MECL-1 (Homo sapiens, UniProt P40306+P49720); assay: Cell-free proteasome subunit peptide cleavage assay, MECL-1; assay type: biochemical
primary human cells = assay: BioMAP Diversity PLUS Panel for Broad Phenotypic Profiling; assay type: cell-based

Structure (SMILES) | IC50 (mouse LMP7) [nM] | IC50 [1] [nM] | IC50 [2] [nM] | IC50 [3] [nM] | IC50 [4] [nM] | cytotoxicity toward primary human B cells, PBMCs, mononuclear cells, and venular endothelial cells (primary human cells; 33 nmol/L) | proliferation of primary human coronary artery smooth muscle cells, endothelial cells, fibroblasts, and T cells (primary human cells; non-cytotoxic concentration of 11 nmol/L)
CC(C)C[C@H](NC(=O)[C@H](Cc1ccccc1)NC(=O)c1cnccn1)B(O)O [Bortezomib] | 5.3 |  |  |  |  |  | 
CC(C)C[C@H](NC(=O)CNC(=O)c1cc(Cl)ccc1Cl)B(O)O [Ixazomib] |  | 28 ± 22 | > 30000 | 0.9 ± 0.2 | 5470 | cytotoxic | reduced proliferation
